In PubChem BioAssay AID652028 (The Scripps Research Institute Molecular Screening Center, 2013) one finds fold change data, which are given here for 11 compounds.

Calls of active or inactive are those of the source.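 The calls were made as follows: active = fold change under 0.5 at 10 µM in a cell reporter of NFkB inflammatory signaling; inactive = the rest.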

The test system of this test is HEK NFkB luciferase reporter, IL-6 stimulated, luminescence. The test is described as follows: blockade of IL-6-induced NFkB reporter activity – HEK cells, luminescence, IL-6 stimulus, powder samples, counter-screen for STAT5 inhibitor project, late-stage follow-up (AID 652028). The note with it: at 10 µM; stronger effect = lower value. (A counterscreen serves to expose hits that act by an unwanted route or on another target.)
For the compound `CN1/C(=C\C(=O)Cn2nnc(-c3ccccc3)n2)C(C)(C)c2ccccc21`, the fold change is 0.871 (inactive). Regarding `O=C(C[n+]1ccc2ccccc2c1)c1cc2ccccc2oc1=O`, the fold change was 0.218. For `CN1/C(=C\C(=O)CN2CCc3ccccc3C2)C(C)(C)c2ccccc21`, the fold change was 0.879 (inactive).

Turning to `CCOC(=O)C1CCCN(CC(=O)/C=C2/N(C)c3ccccc3C2(C)C)C1` (stereo unspecified), the fold change is 0.99 (inactive).

As for `Cc1cc[n+](CC(=O)/C=C2\N(C)c3ccccc3C2(C)C)c(C)c1`, the fold change is 0.848 (inactive).

As for `CN1/C(=C\C(=O)C[n+]2ccccc2)C(C)(C)c2ccccc21`, the fold change is 0.819 (inactive). On to `CC(C)(C)C(=O)C[n+]1ccc2ccccc2c1`, for which the fold change is 0.915 (inactive). As to `O=C(C[n+]1ccc2ccccc2c1)c1ccccc1`, the fold change is 0.911 (inactive). On to `CN1/C(=C\C(=O)CN2C(=O)C3CC=CCC3C2=O)C(C)(C)c2ccccc21` (stereo unspecified), for which the fold change was 0.828 (inactive).

Take `O=C(C[n+]1ccc2ccccc2c1)c1ccc2ccccc2c1`: the fold change was 3.27 (inactive). Turning to `O=C(C[n+]1ccc2ccccc2c1)Nc1ccccc1`, the fold change is 0.947 (inactive).
